From US11365183B2, “Eicosanoid derivatives” (MAX-DELBRUECK-CENTRUM FUER MOLEKULARE MEDIZIN, priority 2009, dated 2022)

How the values were obtained:
[1] = tested on: neonatal rat cardiomyocytes (NRCMs); assay: Chronotropic effect on spontaneous beating rate of cultured neonatal rat cardiomyocytes (identification of agonists); assay type: cell-based; conditions: 30 nM, incubation time 5 min; for agonistic / chronotropic effect on NRCMs, in words: compound alone
Excerpt: This negative chronotropic effect reflects the capacity of the analogs to interact with and to activate a G-protein coupled receptor or other primary cellular targets that reduce the contractility of cardiomyocytes under basal and stress-induced conditions.
The compounds included EPA and 17,18-EETeTr (compounds 01 and 02; purchased from Cayman Chemical) as well as all but one (compound 16) of the analogs synthesized as described in examples 1-24. The R,S— and S,R-enantiomers of 17,18-EETeTr (compounds 03 and 04) were prepared resolving the racemic mixture (compound 02) by means of chiral-phase HPLC as described previously (Barbosa-Sicard E, Markovic M, Honeck H, Christ B, Muller D N, Schunck W H. Biochem Biophys Res Commun. 2005 Apr. 22; 329(4):1275-81). Before use, the compounds to be tested were prepared as 1000-fold stock solutions in ethanol.
Isolation and cultivation of NRCMs were performed as described previously (Wallukat, G; Wollenberger, A. Biomed Biochim Acta. 1987; 78:634-639; Wallukat G, Homuth V, Fischer T, Lindschau C, Horstkamp B, Jupner A, Baur E, Nissen E, Vetter K, Neichel D, Dudenhausen J W, Haller H, Luft F C. J Clin Invest. 1999; 103: 945-952). Briefly, neonatal Wistar rats (1-2 days old) were killed in conformity to the recommendations of the Community of Health Service of the City of Berlin and the cardiomyocytes were dissociated from the minced ventricles with a 0.2% solution of crude trypsin. The isolated cells were then cultured as monolayers on the bottom (12.5 cm^2) of Falcon flasks in 2.5 ml of Halle S M 20-I medium equilibrated with humidified air. The medium contained 10% heat-inactivated FCS and 2 μmol/l fluoro-deoxyuridine (Serva, Heidelberg, Germany), the latter to prevent proliferation of non-muscle cells. The NRCMs (2.4×10^6 cells/flask) were cultured at 37° C. in an incubator. After 5 to 7 days, the NRCMs formed spontaneously beating cell clusters. […] On the day of the experiment, the culture medium was replaced by 2.0 ml fresh serum-containing medium. Two hours later, the beating rates were monitored at 37° C. using an inverted microscope equipped with a heating stage. To determine the basal rate, 6 to 8 individual clusters were selected and the number of contractions was counted for 15 sec. After that, the compound to be tested was added to the culture and the beating rate of the same clusters was monitored 5 min later again. Based on the difference between the basal and compound-induced beating rate of the individual clusters, the chronotropic effects (Δ beats/min) were calculated and are given as mean±SE values. N refers to the number of clusters monitored which originated, in general, from at least three independent NRCM cultures.
This effect was fully expressed using an EPA concentration of 3.3 μM and an incubation time of 30 min. In contrast, 17,18-EETeTr (C02) produced the same effect almost immediately and already in the low nanomolar range (EC50 of 1-2 nM, data not shown). To compare the activity of 17,18-EETeTr with that of its synthetic analogs, all these compounds were tested at a final concentration of 30 nM and using an incubation time of 5 min.

[2] = tested on: neonatal rat cardiomyocytes (NRCMs); assay: Response of NRCMs to increased extracellular Ca2+ and ß-adrenergic stimulation; assay type: cell-based; conditions: 30 nM added 5 min before
Description: Compound C11 was synthesized as described above (example 11). NRCMs were isolated and cultured as in Example 19. The basal Ca^2+-concentration of the medium was 1.2 mM. Increased extracellular Ca^2+-concentrations (2.2, 5.2 and 8.2 mM) were adjusted by adding appropriate amounts of a 1 M CaCl2 solution to the cultures. Isoproterenol (from Sigma-Aldrich) was used as ß-adrenoreceptor agonist and added to the cultures to give final concentrations of 0.1, 1 or 10 μM. C11 was used at a final concentration of 30 nM and added to the cultures 5 min before changing the Ca^2+-concentration or adding isoproterenol. Controls were performed in the absence of C11.

[3] = tested on: rat model of myocardial infarction; assay: Anti-arrhythmic effect in rat model of myocardial infarction (LAD ligation); assay type: in vivo; conditions: male Wistar rats
Description: Study design: To gain insight into the in-vivo effects of synthetic 17,18-EETeTr-agonists, myocardial infarction studies were performed in male Wistar rats. Briefly, rats weighing 220-250 g were randomized to receive an i.v. bolus of compound C17 (100 μg in 300 μl 0.9% NaCl) or only 300 μl 0.9% NaCl as vehicle control two hours before induction of myocardial infarction. For safe bolus application, animals were mildly anesthetized using isoflorane. Two hours after bolus application, animals were re-anesthetized with a mixture of ketamine and xylazine (i.v.). Continuous monitoring of the surface-ECG was started (EPTracer, Netherlands) and maintained until the end of the study. After recording of the basal ECG, myocardial infarction was induced by ligation of the left anterior descending artery (LAD). One hour after myocardial infarction animals were sacrificed and organ harvested. Samples from urine, blood, liver, kidney and heart were stored for further analysis.
Method of arrhythmia analysis: Ventricular tachycardia burden was calculated as the sum of all arrhythmic events originating from the ventricular myocardium, which were observed within the first hour after induction of myocardial infarction. In order to quantify not only the frequency but also the severity of the ventricular arrhythmias, an arrhythmia-severity-score was calculated. This score was calculated as the sum of the number of different arrhythmia events (PVC, couplet, triplet, VT<1.5 sec, VT>=1.5 sec), each class factorized by an increasing severity index of 1-5 (e.g. PVC×1, couplets×2, . . . , VT>=1.5 sec×5).

Compound | chronotropic effect (Δ beats/min), mean±SE ([1]; NRCM clusters) | agonistic / chronotropic effect on NRCMs, in words [1] | beating rate of NRCMs at basal and increased extracellular Ca2+ ([2]; 1.2 mM Ca2+ and up to 8.2 mM) | response of NRCMs to increasing concentrations of isoproterenol ([2]; isoproterenol 0.1, 1 or 10 μM) | melting point | side effects of bolus injection ([3]; i.v. bolus 100 μg) | ventricular tachycardia burden ([3]; i.v. bolus 100 μg two hours before LAD ligation, first hour after infarction, n=5) | arrhythmia severity score ([3]; i.v. bolus 100 μg two hours before LAD ligation, n=5)
CCNC(=O)NCCCC/C=C\CCCCCCCCCC(=O)O [Compound C11, 16-(3-Ethylureido)hexadec-11(Z)-enoic Acid] | −27.0±1.2 beats/min | Agonists | significantly reduced | reduced the response | 83.1 to 83.3 °C |  |  | 
CCNC(=O)NCCCC/C=C\CCCCCCCCCC(=O)NCC(=O)[O-].[Na+] [Compound C17, Sodium (Z)-2-(16-(3-Ethylureido)hexadec-11-enamido)acetate] |  | Agonists |  |  |  | did not induce any obvious negative side effects | 7526.2±5664.3 ms/h | 125±25 arbitrary units
